Patent US20220132847A1, “CINNOLINIUM COMPOUNDS FOR USE IN A METHOD OF CONTROLLING UNWANTED PLANT GROWTH” (SYNGENTA CROP PROTECTION AG, priority 2019, published 2022)

Columns and labels:
Test in all cases: Post-emergence efficacy, glasshouse
Type in all cases: in vivo
Setaria faberi (SETFA) = details: Setaria faberi, post-emergence, 312 h, evaluated after 13 days, 100=total damage to plant, 0=no damage to plant, read-out: Control of weed species after post-emergence application, SETFA; for pest or weed control at 1000 g/ha: Application Rate 1000 g/Ha; for pest or weed control at 500 g/ha: Application Rate 500 g/Ha
Procedure, shortened: (§1)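 Visual damage score, 0–100 (100 = total plant damage), 13 days after spraying. Spray: IF50/acetone formulation diluted in water with 0.25% or 1% sodium lauryl ether sulphate + 1% ammonium sulphate, applied to 14-day-old pot-grown plants.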

Eleusine indica (ELEIN) = details: Eleusine indica, post-emergence, 312 h, evaluated after 13 days, 100=total damage to plant, 0=no damage to plant, read-out: Control of weed species after post-emergence application, ELEIN; for pest or weed control at 1000 g/ha: Application Rate 1000 g/Ha; for pest or weed control at 500 g/ha: Application Rate 500 g/Ha
Procedure, shortened: as §1

[1] = system: Ipomoea hederacea (IPOHE); details: Ipomoea hederacea, post-emergence, 312 h, evaluated after 13 days, 100=total damage to plant, 0=no damage to plant, read-out: Control of weed species after post-emergence application, IPOHE; for pest or weed control at 1000 g/ha: Application Rate 1000 g/Ha; for pest or weed control at 500 g/ha: Application Rate 500 g/Ha
Procedure, shortened: as §1

[2] = system: Digitaria sanguinalis (DIGSA); details: Digitaria sanguinalis, post-emergence, 312 h, evaluated after 13 days, 100=total damage to plant, 0=no damage to plant, read-out: Control of weed species after post-emergence application, DIGSA; for pest or weed control at 1000 g/ha: Application Rate 1000 g/Ha; for pest or weed control at 500 g/ha: Application Rate 500 g/Ha
Procedure, shortened: as §1

[3] = system: Euphorbia heterophylla (EPHHL); details: Euphorbia heterophylla, post-emergence, 312 h, evaluated after 13 days, 100=total damage to plant, 0=no damage to plant, read-out: Control of weed species after post-emergence application, EPHHL; for pest or weed control at 1000 g/ha: Application Rate 1000 g/Ha; for pest or weed control at 500 g/ha: Application Rate 500 g/Ha
Procedure, shortened: as §1

[4] = system: Amaranthus palmeri (AMAPA); details: Amaranthus palmeri, post-emergence, 312 h, evaluated after 13 days, 100=total damage to plant, 0=no damage to plant, read-out: Control of weed species after post-emergence application, AMAPA; for pest or weed control at 1000 g/ha: Application Rate 1000 g/Ha; for pest or weed control at 500 g/ha: Application Rate 500 g/Ha
Procedure, shortened: as §1

Lolium perenne (LOLPE) = details: Lolium perenne, post-emergence, 312 h, evaluated after 13 days, 100=total damage to plant, 0=no damage to plant, read-out: Control of weed species after post-emergence application, LOLPE; for pest or weed control at 1000 g/ha: Application Rate 1000 g/Ha; for pest or weed control at 500 g/ha: Application Rate 500 g/Ha
Procedure, shortened: as §1

[5] = system: Chenopodium album (CHEAL); details: Chenopodium album, post-emergence, 312 h, evaluated after 13 days, 100=total damage to plant, 0=no damage to plant, read-out: Control of weed species after post-emergence application, CHEAL; for pest or weed control at 1000 g/ha: Application Rate 1000 g/Ha; for pest or weed control at 500 g/ha: Application Rate 500 g/Ha
Procedure, shortened: as §1

[6] = system: Echinochloa crus-galli (ECHCG); details: Echinochloa crus-galli, post-emergence, 312 h, evaluated after 13 days, 100=total damage to plant, 0=no damage to plant, read-out: Control of weed species after post-emergence application, ECHCG; for pest or weed control at 1000 g/ha: Application Rate 1000 g/Ha; for pest or weed control at 500 g/ha: Application Rate 500 g/Ha
Procedure, shortened: as §1

| Structure (SMILES) | pest or weed control at 1000 g/ha (Setaria faberi (SETFA)) [%] | pest or weed control at 1000 g/ha (Eleusine indica (ELEIN)) [%] | pest or weed control at 1000 g/ha [1] [%] | pest or weed control at 1000 g/ha [2] [%] | pest or weed control at 1000 g/ha [3] [%] | pest or weed control at 1000 g/ha [4] [%] | pest or weed control at 1000 g/ha (Lolium perenne (LOLPE)) [%] | pest or weed control at 1000 g/ha [5] [%] | pest or weed control at 1000 g/ha [6] [%] | pest or weed control at 500 g/ha (Setaria faberi (SETFA)) [%] | pest or weed control at 500 g/ha (Eleusine indica (ELEIN)) [%] | pest or weed control at 500 g/ha [1] [%] | pest or weed control at 500 g/ha [2] [%] | pest or weed control at 500 g/ha [3] [%] | pest or weed control at 500 g/ha [4] [%] | pest or weed control at 500 g/ha (Lolium perenne (LOLPE)) [%] | pest or weed control at 500 g/ha [5] [%] | pest or weed control at 500 g/ha [6] [%] |
| --- | --- | --- | --- | --- | --- | --- | --- | --- | --- | --- | --- | --- | --- | --- | --- | --- | --- | --- |
| COC(=O)CC[n+]1cc(C(=O)[N-]S(C)(=O)=O)c2ccccc2n1 [Compound A18] | 10 | 20 | 20 | 30 | 10 | 10 | 0 | 10 | 20 | – | – | – | – | – | – | – | – | – |
| CCOP(=O)([O-])c1c[n+](C(C)C)nc2ccccc12 [Compound A77] | – | – | – | – | – | – | – | – | – | 90 | 100 | 90 | 90 | 80 | 100 | 30 | 90 | 50 |
| COP(=O)(O)Cc1c[n+](C)nc2ccccc12 [Compound A53] | 90 | 100 | 100 | 90 | 100 | 100 | 30 | 70 | 80 | – | – | – | – | – | – | – | – | – |
| CCP(=O)([O-])c1c[n+](C)nc2ccccc12 [Compound A48, ethyl-(2-methylcinnolin-2-ium-4-yl)phosphinate] | 100 | 100 | 70 | 70 | 100 | 100 | 40 | 100 | 80 | – | – | – | – | – | – | – | – | – |
| C[C@@H](NC(=O)c1c[n+](C)nc2ccccc12)C(=O)O [Compound A9, (2R)-2-[(2-methylcinnolin-2-ium-4-carbonyl)amino]propanoic acid 2,2,2-trifluoroacetate] | 30 | 40 | 50 | 40 | 50 | 50 | 10 | 50 | 20 | – | – | – | – | – | – | – | – | – |
| CONC(=O)c1c[n+](C)nc2ccccc12 [Compound A4, N-methoxy-2-methyl-cinnolin-2-ium-4-carboxamide 2,2,2-trifluoroacetate] | 10 | 20 | 20 | 0 | 50 | 10 | 0 | 40 | 10 | – | – | – | – | – | – | – | – | – |
| O=C(O)C[n+]1cc(C(=O)[O-])c2ccccc2n1 [Compound A23, 2-(carboxymethyl)cinnolin-2-ium-4-carboxylate] | 30 | 40 | 20 | 70 | 20 | 50 | 10 | 50 | 30 | – | – | – | – | – | – | – | – | – |
| C[n+]1cc(C(=O)[N-]S(=O)(=O)c2ccc(F)cc2)c2ccccc2n1 [Compound A38] | 40 | 90 | 20 | 30 | 60 | 60 | 0 | 50 | 20 | – | – | – | – | – | – | – | – | – |
| C[n+]1cc(C(=O)[N-]S(=O)(=O)C(F)(F)F)c2ccccc2n1 [Compound A44] | 20 | 0 | 20 | 0 | 30 | 80 | 0 | 40 | 20 | – | – | – | – | – | – | – | – | – |
| CCCS(=O)(=O)[N-]C(=O)c1c[n+](C)nc2ccccc12 [Compound A33] | 40 | 70 | 60 | 80 | 80 | 40 | 40 | 40 | 20 | – | – | – | – | – | – | – | – | – |
| CCCP(=O)([O-])c1c[n+](C)nc2ccccc12 [Compound A49] | 90 | 100 | 90 | 100 | 100 | 100 | 30 | 90 | 70 | – | – | – | – | – | – | – | – | – |
| CCOP(=O)([O-])c1c[n+](C(C)(C)C)nc2ccccc12 [Compound A75, (2-tert-butylcinnolin-2-ium-4-yl)-ethoxy-phosphinate] | – | – | – | – | – | – | – | – | – | 30 | 70 | 30 | 30 | 30 | 50 | 30 | 50 | 70 |
| COC(=O)CC[n+]1cc(C(=O)[N-]S(=O)(=O)C2CC2)c2ccccc2n1 [Compound A19, cyclopropylsulfonyl-[2-(3-methoxy-3-oxo-propyl)cinnolin-2-ium-4-carbonyl]azanide] | – | – | – | – | – | – | – | – | – | 0 | 50 | 30 | 40 | 40 | 30 | 20 | 60 | 60 |
| C[n+]1cc(SCC(=O)O)c2ccccc2n1 [Compound A57, 2-(2-methylcinnolin-2-ium-4-yl)sulfanylacetic acid chloride] | 30 | 40 | 10 | 30 | 20 | 40 | 10 | 40 | 10 | – | – | – | – | – | – | – | – | – |
